Test results published in US20110281956A1, “USE OF THYMUS CAPITATUS EXTRACT, SATUREJA HORTENSIS EXTRACT, OR CARVACROL FOR TREATING METABOLIC DISEASES” (INDUSTRY-ACADEMIC COOPERATION FOUNDATION, YONSEI UNIVERSITY, priority 2009, published 2011).
“Also recorded” adds a separate entry of the source. Marks after values point to notes of the source that are not given here.

Tests used:
preadipocytes 3T3-L1 = assay: Adipocyte differentiation inhibition, Oil Red O staining; format: cell-based, mouse; conditions: 14 days
Experimental: The effect of carvacrol […] on adipocyte differentiation and growth was investigated using mouse adipocytes (3T3-L1). Preadipocytes 3T3L1 were placed on a 12-well plate and cultured to confluency in a 5% CO2 incubator at 37° C. using DMEM containing 1% penicillin-streptomycin, 1% non-essential amino acids and 10% fetal bovine serum (FBS). The cultured 3T3-L1 cells were differentiated into adipocytes by culturing for 2 days in a medium containing 0.5 mM methylisobutylxanthine/1 μM dexamethasone/1 μg/mL insulin (DMI). The cells were differentiated into mature adipocytes by further culturing for 2 days in DMEM containing 1 μg/mL insulin. Subsequently, they were further cultured for 10 days while changing DMEM every other day to obtain fully differentiated adipocytes.
Starting from the day when DMI was added to the 3T3-L1 cells, carvacrol was treated at concentrations of 0.1, 1, 10, 50 and 100 μM every other day. Carvacrol was purchased from Sigma and used after dissolving in DMSO. For negative control, only DMSO was used. After the culturing for a total of 14 days, when the cells were fully differentiated, the medium was removed and the fats contained in the differentiated adipocytes were stained. […]
To measure the triglyceride level of the differentiated 3T3-L1 cells, the stained cells were dissolved in 1 mL of isobutanol and OD value was measured at 600 nm.

[1] = system: leiomyosarcoma cells isolated from rats cancer-induced with 3,4-benzopyrene; conditions: carvacrol at 67 μM for 24 hours or at 90 μM for 48 hours; cited from earlier work
[2] = system: C57BL/6J mice on high-fat diet; assay: Carvacrol-containing high-fat diet fed to mice for 10 weeks: abdominal fat, blood lipids, glucose, insulin, liver lipids; format: in vivo, mouse
Experimental: High-fat diet (HFD: 40% fat calorie, 17 g lard+3% corn oil/100 g diet) was used to induce obesity. Carvacrol-containing diet had the same composition as the HFD except for containing 0.1% carvacrol. Normal diet (ND) was prepared according to AIN-76 rodent diet (see Table 1).
5-week-old male C57BL/6J mice were accustomed to the laboratory environment for a week while feeding solid feed. They were randomly divided into the ND, HFD and carvacrol groups according to the randomized block design and reared for 10 weeks. Diet was provided between 10 and 11 a.m. every day along with water. Food intake was measured every day, and body weight was measured every 3 days. In order to avoid transient body weight increase due to feed intake, body weight was measured 2 hours after removing the feedbox.
After fasting the test animal for at least 12 hours and anesthetizing with diethyl ether, blood, liver and abdominal fat tissue (epididymal, perirenal, mesenteric and retroperitoneal fat) were taken and weighed after washing with 0.1 M PBS (pH 7.4). The blood taken from the abdominal aorta was centrifuged at 1000×g for 15 minutes to isolate the serum.
Total cholesterol level, triglyceride level, glucose level and insulin level in plasma and lipid components in liver tissue were measured as follows. Total cholesterol level, triglyceride level and glucose level in plasma were measured 2 times using a commercially available kit (Bio Clinical System), and insulin level was measured by ELISA using a mouse Insulin kit (Shibayali, Japan). Lipid components were extracted from liver tissue according to Folch et al.'s method (Folch J, Lees M, Sloane Stanley G H. A simple method for the isolation and purification of total lipids from animal tissues. J. Biol. Chem. 1957; 226: 497-509) as follows. After adding 1 mL of distilled water to 0.25 g of liver tissue, the liver tissue was homogenized using a Polytron homogenizer (IKA-WERKE GmbH & Co., Ultra-Turrax, Staufen, Germany). After adding 5 mL of a chloroform/methanol mixture solution (2:1, v/v) to the homogenate and mixing well, centrifugation was performed at 1000×g for 10 minutes. Then, after separating the pellets and adding 2 mL of the chloroform/methanol mixture solution (2: 1, v/v) again to the supernatant, the same procedure was repeated to completely isolate the lipid components. After adding 3 mL of a chloroform/methanol/0.05% CaCl2 mixture solution (3:48:47, v/v/v) to thus obtained pellets and mixing for 1 minute, centrifugation was performed at 1000×g for 10 minutes. Finally, the resulting pellets were completely dried using nitrogen gas and the dried lipids were dissolved in 1 mL of methanol for analysis of the lipid components. Triglyceride level of the liver tissue was measured as in the plasma analysis using the same commercially available kit (Bio Clinical System).
In Table 2, the characters a, b and c indicate significance according to one-way ANOVA and Duncan's multiple range test (p<0.001). The atherogenic index was calculated by (total cholesterol−HDL cholesterol)/HDL cholesterol, and the insulin resistance index was calculated by 10^−3 pmol insulin×mmol glucose×L^−2.

[3] = 0.1% carvacrol in high-fat diet
[4] = 0.1% carvacrol in high-fat diet, FIG. 2
[5] = blood (plasma), 0.1% carvacrol in high-fat diet
[6] = liver tissue, 0.1% carvacrol in high-fat diet

## Cc1ccc(C(C)C)cc1O [Carvacrol, carvacrol]
Preadipocytes 3T3-L1; 0.1-100 μM, FIG. 1B
  fats stained with Oil Red O, OD value at 600 nm (cellular fat content): decreased the cellular fat content in a concentration-dependent manner; also recorded: decrease in OD value in a concentration-dependent manner
Preadipocytes 3T3-L1; concentration-dependent, 0.1, 1, 10, 50 and 100 μM every other day, FIG. 1A
  concentrations at which differentiation of the preadipocytes 3T3-L1 was decreased: ≥ 10 µM
[1]
  production of the final product of platelet aggregation thromboxane B2: decreased
  proliferation of cancer cells: inhibited
[2]; [3]
  Liver weight: 4.1 ± 0.1^b g/100 g body wt
  decrease in LDL+VLDL cholesterol level in plasma (serum) vs HFD: 46%
  decrease in atherogenic index vs HFD: 44%
  decrease in cholesterol level in liver tissue vs HFD: 42%
  decrease in free fatty acid level in liver tissue vs HFD: 58%
  decrease in free fatty acid level in plasma (serum) vs HFD: 80%
  decrease in liver weight (liver-to-body weight ratio) vs HFD: 25%
  decrease in total cholesterol level in plasma (serum) vs HFD: 29%
  decrease in triglyceride level in liver tissue vs HFD: 48%
  decrease in triglyceride level in plasma (serum) vs HFD: 30%
  fasting blood sugar as compared to the HFD group: significant decrease
  insulin level as compared to the HFD group: significant decrease
  insulin resistance index as compared to the HFD group: significant decrease
[2]; [4]
  decrease in epididymal fat weight vs HFD: 31%
  decrease in mesenteric fat weight vs HFD: 51%
  decrease in perirenal fat weight vs HFD: 54%
  decrease in retroperitoneal fat weight vs HFD: 23%
  decrease in total abdominal fat weight vs HFD: 36%
[2]; 10^−3 pmol insulin×mmol glucose×L^−2, 0.1% carvacrol in high-fat diet
  Insulin resistance index: 0.68 ± 0.08^b
[2]; (total cholesterol−HDL cholesterol)/HDL cholesterol, 0.1% carvacrol in high-fat diet
  Atherogenic index: 0.57 ± 0.18^b
[2]; ELISA, 0.1% carvacrol in high-fat diet
  Insulin: 0.58 ± 0.06^b ng/mL
[2]; [5]
  Free fatty acid: 280 ± 35^c uEq/L
  HDL cholesterol: 1.68 ± 0.16^ab mmol/L
  LDL + VLDL cholesterol: 1.11 ± 0.05^b mmol/L
  Total cholesterol: 2.73 ± 0.30^b mmol/L
  Triglyceride: 0.98 ± 0.14^b mmol/L
[2]; fasting, blood (plasma), 0.1% carvacrol in high-fat diet
  Glucose: 6.83 ± 0.31^b mmol/L
[2]; [6]
  Cholesterol: 45.4 ± 5.5^b μmol/g
  Free fatty acid: 10.3 ± 0.73^b uEq/g
  Triglyceride: 22.0 ± 6.0^b μmol/g
